In US5789386A, “Fluorine-containing anthracycline derivatives having hydroxyl groups(s) mono- or di-o-aminoalkanoylated in the sugar moiety thereof” (priority 1995, dated 1998):
≈ marks a conversion by molar mass, not a printed value.

How the values were obtained:
[1] = low dosages which give high antitumor effects; test animals; cited from earlier work
experimental tumors = details: test animals; background, earlier applications; cited from earlier work
Leukemia L-1210 cells = assay: Antitumor test against leukemia L-1210 in CDF1 mice (T/C, %); assay type: in vivo, mouse (CDF1); details: for % Increase in life-span (T/C, %): 9 days
Experimental: Thus, to evaluate the antitumor effects of the new compounds according to the first aspect of this invention against experimental tumors in animals, CDF1 mice (four mice per group) were intraperitoneally transplanted with cells of Leukemia L-1210 at an amount of 1×10^5 cells/mouse. Since an elapsed time of 24 hours from the transplantation of the leukemia cells, a test compound according to this invention was administered intraperitoneally to the mice under test for 9 consecutive days once per day. […] While, mice of the control group (the untreated group) were administered with only physiological saline after the transplantation of the L-1210 cells. During the observation period, the numbers of the surviving mice in the treated group and in the control group were counted, and the mean survival days of mice in the treated group and in the control group were then calculated. From the mean survival day (C) of the untreated mice of the control group and the mean survival day (T) of the treated mice of the treated group, there were evaluated percentages (%) of the increase in the life-span of the treated mice, as T/C %. For a comparison purpose, 7-O-(2,6-dideoxy-2-fluoro-α-L-talopyranosyl)daunomycinone (abbreviation: FT-DM); 7-O-(2,6-dideoxy-2-fluoro-α-L-talopyranosyl)adriamycinone(abbreviation: FT-ADM); and adriamycin were also tested in the same manner as above. Incidentally, the mean survival day of mice of the control group (the untreated group) was amounting to 8 to 9 days, and the mean survival day of mice of the comparative groups having received the administration of adriamycin was varying dependently on the dosage of adriamycin.
Notes; Asterisks (*) indicate that development of toxicity such as
toxicityrelated death or a body weight loss was observed on the
corresponding mice tested.

[2] = clinical use, many instances; cited from earlier work
[3] = test system: adriamycin-resistant P388 cells (P388/ADR); assay: In vitro growth inhibition of adriamycin-resistant P388 cells (P388/ADR), 72 hours; assay type: cell-based; details: Mus musculus, 72 h
[4] = test system: mouse leukemia, P388 cells; assay: In vitro growth inhibition of P388 cells, 72 hours; assay type: cell-based; details: P388, 72 h

| Structure (SMILES) | development of acute toxicity (in words) [1] | anticancer or antitumor activity (in words) (experimental tumors) | % Increase in life-span (T/C, %) (Leukemia L-1210 cells; 0.15 mg/kg/day i.p.) | % Increase in life-span (T/C, %) (Leukemia L-1210 cells; 0.3 mg/kg/day i.p., ">" = at least one of four mice survived 60 days or longer) | % Increase in life-span (T/C, %) (Leukemia L-1210 cells; 0.6 mg/kg/day i.p., ">" = at least one of four mice survived 60 days or longer) | % Increase in life-span (T/C, %) (Leukemia L-1210 cells; 1.25 mg/kg/day i.p., ">" = at least one of four mice survived 60 days or longer) | % Increase in life-span (T/C, %) (Leukemia L-1210 cells; 2.5 mg/kg/day i.p., ">" = at least one of four mice survived 60 days or longer) | percentage (%) of increase in life-span (T/C, %) at maximum (Leukemia L-1210 cells; 2.5 mg/kg/day to 5 mg/kg/day, L-1210 mice) | % Increase in life-span (T/C, %) (Leukemia L-1210 cells; 5 mg/kg/day i.p., ">" = at least one of four mice survived 60 days or longer) | development of toxicity (in words) (Leukemia L-1210 cells; daunomycin, adriamycin 2.5 mg/kg/day to 5 mg/kg/day, L-1210 mice) | serious side-effects (in words) [2] | IC50 [3] | IC50 [4] |
| --- | --- | --- | --- | --- | --- | --- | --- | --- | --- | --- | --- | --- | --- |
| COc1cccc2c1C(=O)c1c(O)c3c(c(O)c1C2=O)C[C@@](O)(C(=O)CO)C[C@@H]3O[C@H]1C[C@H](O)[C@H](O)[C@H](C(F)(F)F)O1 [formula (D), 7-O-(2,6-dideoxy-6,6,6-trifluoro-α-L-lyxo-hexopyranosyl)adriamycinone] | development of acute toxicity does not take place | high anticancer or antitumor activity | – | – | – | – | – | – | – | – | – | – | – |
| COc1cccc2c1C(=O)c1c(O)c3c(c(O)c1C2=O)C[C@@](O)(C(=O)CO)C[C@@H]3O[C@H]1C[C@H](N)[C@H](O)[C@H](C)O1 [Adriamycin, adriamycin, reference compound] | – | – | 140% | 132% | 208% | 330% | 273% | approximately 330% | 177% | being accompanied by development of toxicity | serious side-effects such as leukocytopenia, alopecia, myocardiopathy and others | 1.3 µg/mL (≈ 2.39 µM) | 0.033 µg/mL (≈ 0.0607 µM) |
